These results are taken from patent EP0574185B1, “PGE1 analogs” (NEWPHARMA INTERNATIONAL CORPORATION, priority 1992, dated 1993).

The test relates to rat uterus under diestrous condition. In words: C2: effect on PGF2α induced in vitro contraction of rat uterus under diestrous condition. Conditions: B-407 1x10^-8 M; PGF2α 10^-9M; nutrient solution 1,04; p < 0.02. How it is done: Then, a known concentration of the test prostaglandin was added and no washing was carried out during the following 15 minutes. PGF2α (10^-8 M) was added, washing once after 2 minutes and then twice over a total time period of 15 minutes. The result was expressed as the relationship between the effect of PGF2α after the treatment with B-407 and the sum of the effect of PGF2α (mean of the three initial additions) and the effect of B-407 "per se". The recordings of the contractions and their quantitation were performed as described in (A).
The experimental conditions were identical to those described in B2 and the working protocol was similar to that of C1 but the PGF2α concentration was of 10^-9M. The recordings of the contractions and their quantitation were performed as described in (A).
* p < 0.05: Tested vs. nutrient solution by ANOVA and Scheffe. ** p < 0.02: Tested vs. nutrient solution by Student's-t-test. Ratio = Effect of PGF2α after B-407/(Effect of PG F2α before B-407 + Effect of B-407). […]
The frequency and magnitude of the responses were globally evaluated by calculating the total area recorded at a fixed time period as will be further explained. […]
The calibration was made by weighing a piece of paper which corresponded to a tension of 1 g at the working sensitivity along 2 minutes. […] The results were expressed as the mean ± the standard error of the areas obtained. […]

Each structure is given as a SMILES string.

With `CCCCC(C)(O)C/C=C/[C@H]1[C@H](O)CC(=O)[C@@H]1CCCC/C=C/C(=O)OC` (mixture of isomers) [B-407, trans-Δ^2-15-deoxy-16-hydroxy-16-methyl PGE1 methyl ester], the “Ratio = Effect of PGF2α after B-407/(Effect of PG F2α before B-407 + Effect of B-407)” value is reported as 2,35.
